Reference: ChEMBL document CHEMBL4673358 (Bioorg Med Chem Lett, 2021)
Values belong to the compound of their own block, whether it stands above or below them. Activity calls are given as the source filed them. No cut-off for these calls is given here.

Legend:
[1] = Metabolic stability in mouse liver microsomes assessed as intrinsic clearance; type: ADME, Microsome; conditions: read-out: CLH
[2] = Metabolic stability in human liver microsomes assessed as intrinsic clearance; type: ADME, Microsome; conditions: read-out: CLH
[3] = molecular target: T1, Indoleamine 2,3-dioxygenase 1 (Homo sapiens, UniProt P14902); assay: Inhibition of IDO1 in human whole blood; type: tissue-based
Target sequence in this assay (P14902 whole entry): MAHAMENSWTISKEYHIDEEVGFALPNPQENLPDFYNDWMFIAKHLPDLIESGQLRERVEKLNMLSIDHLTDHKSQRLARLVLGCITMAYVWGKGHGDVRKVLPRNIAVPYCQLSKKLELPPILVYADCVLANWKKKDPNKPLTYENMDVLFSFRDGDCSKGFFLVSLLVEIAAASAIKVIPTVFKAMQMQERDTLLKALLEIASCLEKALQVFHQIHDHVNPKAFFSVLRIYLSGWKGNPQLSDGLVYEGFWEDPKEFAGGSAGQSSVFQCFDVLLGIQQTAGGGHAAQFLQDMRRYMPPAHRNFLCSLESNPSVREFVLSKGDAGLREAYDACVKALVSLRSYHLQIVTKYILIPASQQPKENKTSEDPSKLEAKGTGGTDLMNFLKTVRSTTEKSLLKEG

[4] = molecular target: Tryptophan 2,3-dioxygenase (Homo sapiens, UniProt P48775); assay: Inhibition of TDO in HEK cells; type: cell-based
[5] = molecular target: T1, Indoleamine 2,3-dioxygenase 1; assay: Inhibition of IDO1 in human SKOV3 cells; type: cell-based, SK-OV-3
Target sequence in this assay (P14902 whole entry): as above

[6] = molecular target: Indoleamine 2,3-dioxygenase 1 (Mus musculus) (UniProt P28776); assay: In vivo inhibition of IDO1 in mouse assessed as reduction in LPS-induced kynurenine level at 30 mg/kg, po administered as single dose measured after 36 hrs relative to control; type: functional, organism-based
[7] = molecular target: Indoleamine 2,3-dioxygenase 1 (Mus musculus) (UniProt P28776); assay: In vivo inhibition of IDO1 in mouse assessed as reduction in kynurenine level; type: functional
[8] = Metabolic stability in human hepatocytes assessed as intrinsic clearance measured per million cells; type: ADME, cell-based, Hepatocyte; conditions: read-out: CLH
[9] = Metabolic stability in human hepatocytes assessed as half life; type: ADME, cell-based, Hepatocyte
[10] = Metabolic stability in rat hepatocytes assessed as intrinsic clearance measured per million cells; type: ADME, cell-based, Hepatocyte; conditions: read-out: CLH
[11] = Metabolic stability in rat hepatocytes assessed as half life; type: ADME, cell-based, Hepatocyte
[12] = Metabolic stability in mouse hepatocytes assessed as intrinsic clearance measured per million cells; type: ADME, cell-based, Hepatocyte; conditions: read-out: CLH
[13] = Metabolic stability in mouse hepatocytes assessed as half life; type: ADME, cell-based, Hepatocyte
[14] = Half life in rat at 10 mg/kg, po; type: ADME, organism-based; conditions: in vivo
[15] = Half life in mouse at 10 mg/kg, po; type: ADME, organism-based; conditions: in vivo
[16] = AUC(0 to 72 hrs) in rat at 10 mg/kg, po; type: ADME, organism-based; design: time < 72 hr, route oral, dose 10 mg/kg; conditions: in vivo
[17] = Cmax in rat at 10 mg/kg, po; type: ADME, organism-based; design: route oral, dose 10 mg/kg; conditions: in vivo
[18] = AUC(0 to 72 hrs) in mouse at 10 mg/kg, po; type: ADME, organism-based; design: time < 72 hr, route oral, dose 10 mg/kg; conditions: in vivo
[19] = Cmax in mouse at 10 mg/kg, po; type: ADME, organism-based; design: route oral, dose 10 mg/kg; conditions: in vivo
[20] = molecular target: T2, hERG (KCNH2) (Homo sapiens, UniProt Q12809); assay: Inhibition of human ERG assessed as reduction in channel tail current at 10 uM by patch clamp assay relative to control
[21] = molecular target: T2, hERG (KCNH2); assay: Inhibition of human ERG at 10 uM relative to control
[22] = molecular target: Cytochrome P450 3A4 (Homo sapiens, UniProt P08684); assay: Inhibition of CYP3A4 (unknown origin); type: ADME
[23] = Plasma protein binding in mouse; type: ADME, cell-free; conditions: read-out: PPB (converted)
[24] = Plasma protein binding in human; type: ADME, cell-free; conditions: read-out: PPB
[25] = molecular target: T1, Indoleamine 2,3-dioxygenase 1; assay: Binding affinity to IDO1 (unknown origin) assessed as change in melting temperature at 5 uM by thermal shift assay
Target sequence in this assay (P14902 whole entry, looked up): as the sequence (P14902 whole entry) above

[26] = molecular target: Indoleamine 2,3-dioxygenase 1 (Mus musculus, UniProt P28776); assay: Inhibition of mouse IDO1 expressed in HEK cells; type: cell-based
[27] = molecular target: Cytochrome P450 2C9 (Homo sapiens, UniProt P11712); assay: Inhibition of CYP2C9 (unknown origin); type: ADME
[28] = AUC(0 to 24 hrs) in mouse at 10 mg/kg, po; type: ADME, organism-based; design: time < 24 hr, route oral, dose 10 mg/kg; conditions: in vivo

Tryptophan 2,3-dioxygenase, sequence (P48775 whole entry): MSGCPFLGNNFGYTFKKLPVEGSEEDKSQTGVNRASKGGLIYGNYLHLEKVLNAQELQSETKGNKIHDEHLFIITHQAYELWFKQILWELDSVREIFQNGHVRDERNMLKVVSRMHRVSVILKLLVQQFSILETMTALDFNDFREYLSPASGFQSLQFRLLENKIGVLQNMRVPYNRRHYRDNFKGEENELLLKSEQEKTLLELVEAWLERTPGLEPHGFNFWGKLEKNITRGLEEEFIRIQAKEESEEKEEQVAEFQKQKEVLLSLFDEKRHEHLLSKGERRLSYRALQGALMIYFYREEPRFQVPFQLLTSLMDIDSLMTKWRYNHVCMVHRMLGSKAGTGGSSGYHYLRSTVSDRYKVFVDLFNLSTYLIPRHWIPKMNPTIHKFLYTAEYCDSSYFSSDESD
Indoleamine 2,3-dioxygenase 1 (Mus musculus), sequence (P28776 whole entry, looked up): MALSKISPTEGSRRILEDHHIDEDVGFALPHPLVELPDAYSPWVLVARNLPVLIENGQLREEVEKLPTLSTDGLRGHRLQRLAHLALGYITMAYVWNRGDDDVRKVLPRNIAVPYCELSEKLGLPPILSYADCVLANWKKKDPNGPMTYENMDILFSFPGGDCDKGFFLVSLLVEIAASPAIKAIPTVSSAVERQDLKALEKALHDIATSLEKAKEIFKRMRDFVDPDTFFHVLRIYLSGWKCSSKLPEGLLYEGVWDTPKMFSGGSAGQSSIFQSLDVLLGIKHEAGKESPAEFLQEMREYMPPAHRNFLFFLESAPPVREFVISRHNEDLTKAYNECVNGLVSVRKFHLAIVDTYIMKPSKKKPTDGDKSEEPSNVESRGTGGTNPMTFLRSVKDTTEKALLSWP
T2 sequence (Q12809 whole entry): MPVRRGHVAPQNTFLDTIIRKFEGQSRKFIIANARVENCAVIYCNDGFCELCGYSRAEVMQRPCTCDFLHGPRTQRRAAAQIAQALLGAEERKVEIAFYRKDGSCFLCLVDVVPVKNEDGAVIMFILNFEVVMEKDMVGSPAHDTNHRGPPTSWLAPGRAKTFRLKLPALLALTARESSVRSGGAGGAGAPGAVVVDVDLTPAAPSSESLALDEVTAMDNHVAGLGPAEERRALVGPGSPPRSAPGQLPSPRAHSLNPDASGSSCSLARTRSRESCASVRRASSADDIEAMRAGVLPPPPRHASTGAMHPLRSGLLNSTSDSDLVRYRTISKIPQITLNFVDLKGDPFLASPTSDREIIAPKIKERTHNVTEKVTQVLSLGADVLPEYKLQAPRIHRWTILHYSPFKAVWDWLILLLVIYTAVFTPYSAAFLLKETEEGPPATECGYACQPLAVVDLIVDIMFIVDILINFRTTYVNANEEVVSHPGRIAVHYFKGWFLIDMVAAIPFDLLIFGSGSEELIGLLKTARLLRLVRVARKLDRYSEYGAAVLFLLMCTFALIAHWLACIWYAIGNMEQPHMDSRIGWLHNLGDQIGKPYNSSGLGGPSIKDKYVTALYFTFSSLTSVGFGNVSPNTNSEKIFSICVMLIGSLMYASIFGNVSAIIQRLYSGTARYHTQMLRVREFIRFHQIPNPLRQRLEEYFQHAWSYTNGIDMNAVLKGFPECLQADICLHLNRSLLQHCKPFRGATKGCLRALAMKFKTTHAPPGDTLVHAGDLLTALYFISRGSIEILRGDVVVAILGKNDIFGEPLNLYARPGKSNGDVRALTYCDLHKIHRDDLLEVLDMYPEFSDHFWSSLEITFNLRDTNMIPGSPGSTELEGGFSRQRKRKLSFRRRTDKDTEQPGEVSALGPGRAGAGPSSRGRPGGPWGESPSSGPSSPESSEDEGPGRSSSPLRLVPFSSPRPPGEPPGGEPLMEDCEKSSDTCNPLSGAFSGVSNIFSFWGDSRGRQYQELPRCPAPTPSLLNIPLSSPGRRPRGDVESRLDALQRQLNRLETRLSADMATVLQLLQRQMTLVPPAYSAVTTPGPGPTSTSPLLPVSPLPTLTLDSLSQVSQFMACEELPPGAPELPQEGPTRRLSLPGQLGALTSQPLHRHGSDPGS
Indoleamine 2,3-dioxygenase 1 (Mus musculus, UniProt P28776), sequence (P28776 whole entry): as the sequence (P28776 whole entry, looked up) above
Cytochrome P450 3A4, sequence (P08684 whole entry): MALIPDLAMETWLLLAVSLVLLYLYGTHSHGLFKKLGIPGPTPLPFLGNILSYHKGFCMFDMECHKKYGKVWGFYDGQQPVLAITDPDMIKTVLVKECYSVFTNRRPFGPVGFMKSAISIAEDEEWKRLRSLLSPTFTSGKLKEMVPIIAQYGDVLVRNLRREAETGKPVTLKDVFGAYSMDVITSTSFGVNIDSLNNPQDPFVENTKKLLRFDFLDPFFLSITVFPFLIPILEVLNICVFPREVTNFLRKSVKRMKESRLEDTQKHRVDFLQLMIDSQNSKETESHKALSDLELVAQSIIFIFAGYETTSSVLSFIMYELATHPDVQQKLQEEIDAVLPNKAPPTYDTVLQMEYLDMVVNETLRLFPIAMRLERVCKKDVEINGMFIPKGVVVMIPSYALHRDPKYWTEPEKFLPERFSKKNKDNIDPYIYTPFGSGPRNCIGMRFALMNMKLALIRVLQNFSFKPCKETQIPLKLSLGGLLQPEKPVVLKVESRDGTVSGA
Cytochrome P450 2C9, sequence (P11712 whole entry): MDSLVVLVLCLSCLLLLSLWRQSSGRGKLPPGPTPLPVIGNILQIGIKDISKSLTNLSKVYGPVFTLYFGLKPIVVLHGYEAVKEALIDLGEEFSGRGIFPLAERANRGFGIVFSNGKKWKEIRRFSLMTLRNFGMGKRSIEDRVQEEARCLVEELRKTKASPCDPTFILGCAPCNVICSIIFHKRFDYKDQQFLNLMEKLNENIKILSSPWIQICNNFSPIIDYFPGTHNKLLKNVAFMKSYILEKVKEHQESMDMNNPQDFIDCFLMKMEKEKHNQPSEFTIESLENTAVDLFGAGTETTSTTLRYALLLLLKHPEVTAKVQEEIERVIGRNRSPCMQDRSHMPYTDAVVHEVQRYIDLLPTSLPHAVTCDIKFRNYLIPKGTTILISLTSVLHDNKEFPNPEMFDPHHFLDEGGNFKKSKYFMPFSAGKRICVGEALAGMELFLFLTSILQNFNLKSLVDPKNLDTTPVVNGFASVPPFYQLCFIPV

microsomal CLint [1]: 39 µL/min/mg | microsomal CLint [2]: 22 µL/min/mg | IC50 [3]: 360 nM | IC50 [4]: 11800 nM | IC50 [5]: 12 nM
SMILES: CCC(C(=O)Nc1ccc(Cl)cc1)N1CCC2(CCOc3cc(C(F)(F)F)ccc32)CC1 (stereo not drawn)

microsomal CLint [1]: 19 µL/min/mg | microsomal CLint [2]: 3 µL/min/mg | IC50 [4]: 18400 nM | IC50 [5]: 7.9 nM
SMILES: C[C@H](C(=O)Nc1ccc(Cl)cc1)[C@H]1CC[C@]2(CC1)COc1ncc(C(F)(F)F)cc12

microsomal CLint [1]: 3.5 µL/min/mg | microsomal CLint [2]: 1.6 µL/min/mg | IC50 [4]: 7100 nM | IC50 [5]: 5.4 nM
SMILES: C[C@H](C(=O)Nc1ccc(Cl)cc1)[C@H]1CC[C@]2(CC1)COc1nc(C(F)(F)F)ccc12

IC50 [3]: 1600 nM | IC50 [5]: 15 nM
SMILES: O=C(Nc1ccc(Cl)cc1)C(=O)N1CCC(c2ccnc3ccc(F)cc23)CC1

microsomal CLint [1]: 30 µL/min/mg | microsomal CLint [2]: 5.9 µL/min/mg | IC50 [3]: 320 nM | IC50 [4]: 26400 nM | IC50 [5]: 7 nM
SMILES: CC[C@H](C(=O)Nc1ccc(Cl)cn1)[C@H]1CC[C@]2(CC1)COc1cc(C(F)(F)F)ccc12

SMILES: CC[C@H](C(=O)Nc1ccc(Cl)cc1)N1CCC2(CC1)COc1cc(C(F)(F)F)ccc12 (stereo in doubt)
microsomal CLint [1]: 48 µL/min/mg | microsomal CLint [2]: 17 µL/min/mg | IC50 [4]: 15500 nM | IC50 [5]: 109 nM

microsomal CLint [1]: 92 µL/min/mg | microsomal CLint [2]: 43 µL/min/mg | IC50 [4]: 10300 nM | IC50 [5]: 6.6 nM
SMILES: C[C@@H](C(=O)Nc1ccc(Cl)cc1)[C@H]1CC[C@@]2(CC1)COc1cc(C(F)(F)F)ccc12

SMILES: CC(C(=O)Nc1ccc(Cl)cc1)N1CCC2(CC1)COc1cc(C(F)(F)F)ccc12 (racemic)
microsomal CLint [1]: 56 µL/min/mg | microsomal CLint [2]: 11 µL/min/mg | IC50 [3]: 1320 nM | IC50 [4]: 35600 nM | IC50 [5]: 22 nM

inhibition [6]: Active | inhibition [7]: inactive | hepatocyte CLint [8]: 4 µL/min/1e6 cells | half-life [9]: 2.92 h | hepatocyte CLint [10]: 5.6 µL/min/1e6 cells | half-life [11]: 2.08 h | hepatocyte CLint [12]: 1.7 µL/min/1e6 cells | half-life [13]: 6.65 h | half-life [14]: 49 h | half-life [15]: 115 h | AUC(0-t) at 72 h [16]: 18.2 µM·h | Cmax [17]: 580 nM | AUC(0-t) at 72 h [18]: 105 µM·h | Cmax [19]: 2880 nM | IC50 [22]: 3100 nM | fraction unbound [23]: 0.005 | fraction unbound [24]: 0.001 | ΔTm [25]: 17.8 °C | IC50 [26]: 7.8 nM | microsomal CLint [1]: < 1 µL/min/mg | microsomal CLint [2]: < 1 µL/min/mg | IC50 [3]: 52 nM | IC50 [4]: 7300 nM | IC50 [5]: 3.9 nM
SMILES: C[C@H](C(=O)Nc1ccc(Cl)cc1)[C@H]1CC[C@]2(CC1)COc1cc(C(F)(F)F)ccc12
inhibition at 10 µM [20]: 44% | inhibition at 10 µM [21]: 67%

IC50 [4]: 42800 nM | IC50 [5]: 670 nM
SMILES: O=C(CN1CCC2(CCc3ccccc32)CC1)Nc1ccc(Cl)cc1

SMILES: O=C(CN1CCC2(CC1)COc1cc(C(F)(F)F)ccc12)Nc1ccc(Cl)cc1
IC50 [4]: 25700 nM | IC50 [5]: 260 nM

microsomal CLint [1]: 9.5 µL/min/mg | microsomal CLint [2]: 1.4 µL/min/mg | IC50 [4]: 7100 nM | IC50 [5]: 8.3 nM
SMILES: CC(C(=O)Nc1ccc(Cl)cc1)C1CCC2(CC1)c1ccc(C(F)(F)F)cc1CN2C (stereo not drawn)

SMILES: O=C(Nc1ccc(Cl)cc1)C(CCO)N1CCC2(CC1)COc1cc(C(F)(F)F)ccc12 (stereo not drawn)
IC50 [4]: 9500 nM | IC50 [5]: 86 nM

SMILES: CC[C@@H](C(=O)Nc1ccc(Cl)cc1)N1CCC2(CC1)COc1cc(C(F)(F)F)ccc12 (stereo in doubt)
inhibition at 10 µM [21]: 85% | IC50 [27]: 5000 nM | ΔTm [25]: 15.2 °C | IC50 [26]: 38 nM | microsomal CLint [1]: 53 µL/min/mg | microsomal CLint [2]: 22 µL/min/mg | IC50 [3]: 360 nM | IC50 [4]: 11400 nM | IC50 [5]: 12 nM

SMILES: CC(C)(C(=O)Nc1ccc(Cl)cc1)N1CCC2(CC1)COc1cc(C(F)(F)F)ccc12
microsomal CLint [1]: 117 µL/min/mg | microsomal CLint [2]: 34 µL/min/mg | IC50 [4]: 47900 nM | IC50 [5]: 11 nM

inhibition [6]: Active | hepatocyte CLint [8]: 4.5 µL/min/1e6 cells | half-life [9]: 2.55 h | half-life [15]: 2.5 h | AUC(0-t) at 24 h [28]: 9.3 µM·h | Cmax [19]: 2000 nM
SMILES: C[C@@H](C(=O)Nc1ccc(Cl)cc1)[C@H]1CC[C@@H](c2ccnc3ccc(F)cc32)CC1

IC50 [3]: 1700 nM | IC50 [5]: 32 nM
SMILES: O=C(Nc1ccc(Cl)cc1)C(=O)N1CCC2(CC1)COc1cc(C(F)(F)F)ccc12

microsomal CLint [1]: 668 µL/min/mg | microsomal CLint [2]: 326 µL/min/mg | IC50 [4]: 39000 nM | IC50 [5]: 39 nM
SMILES: CC(C(=O)Nc1ccc(Cl)cc1)N1CCC2(CCc3ccccc32)CC1 (racemic)

microsomal CLint [1]: 193 µL/min/mg | microsomal CLint [2]: 67 µL/min/mg | IC50 [3]: 51 nM | IC50 [4]: 7800 nM | IC50 [5]: 5.1 nM
SMILES: C[C@H](C(=O)Nc1ccc(Cl)cc1)[C@H]1CC[C@@]2(CC1)COc1cc(C(F)(F)F)ccc12

SMILES: O=C(Nc1ccc(Cl)cc1)C(CC1CC1)N1CCC2(CC1)COc1cc(C(F)(F)F)ccc12 (stereo not drawn)
microsomal CLint [1]: 14 µL/min/mg | microsomal CLint [2]: 13 µL/min/mg | IC50 [3]: 300 nM | IC50 [4]: 15900 nM | IC50 [5]: 4.4 nM

microsomal CLint [1]: 4.5 µL/min/mg | microsomal CLint [2]: 3.7 µL/min/mg | IC50 [4]: 10500 nM | IC50 [5]: 69 nM
SMILES: C[C@@H](C(=O)Nc1ccc(Cl)cc1)[C@H]1CC[C@]2(CC1)COc1cc(C(F)(F)F)ccc12
